Reference: BindingDB's records for doi:10.1016/S0960-894X(01)80247-X (1994)

Assays:
Endothelin-1 receptor = molecular target: T1, Endothelin-1 receptor (Rattus norvegicus, UniProt P26684); assay: Concentration required to produce 50% inhibition of binding against ET A receptor obtained from rat thoracic aortic membrane
T1 sequence (P26684 whole entry): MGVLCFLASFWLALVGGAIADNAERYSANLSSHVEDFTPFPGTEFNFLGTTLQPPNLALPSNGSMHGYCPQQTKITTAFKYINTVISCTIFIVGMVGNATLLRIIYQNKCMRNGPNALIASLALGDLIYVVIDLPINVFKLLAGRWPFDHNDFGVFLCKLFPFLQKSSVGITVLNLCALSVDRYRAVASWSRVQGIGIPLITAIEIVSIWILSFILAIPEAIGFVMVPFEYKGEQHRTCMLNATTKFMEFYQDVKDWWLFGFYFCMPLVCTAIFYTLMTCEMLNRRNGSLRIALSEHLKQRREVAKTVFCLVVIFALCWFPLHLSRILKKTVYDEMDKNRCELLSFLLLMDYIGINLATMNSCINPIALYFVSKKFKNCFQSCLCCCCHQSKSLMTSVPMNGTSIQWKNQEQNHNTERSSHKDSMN

[1] = molecular target: T2, Endothelin receptor type B (Rattus norvegicus, UniProt P21451); assay: Concentration required to produce 50% inhibition of binding against ET B receptor obtained from rat brain membrane
T2 sequence (P21451 whole entry): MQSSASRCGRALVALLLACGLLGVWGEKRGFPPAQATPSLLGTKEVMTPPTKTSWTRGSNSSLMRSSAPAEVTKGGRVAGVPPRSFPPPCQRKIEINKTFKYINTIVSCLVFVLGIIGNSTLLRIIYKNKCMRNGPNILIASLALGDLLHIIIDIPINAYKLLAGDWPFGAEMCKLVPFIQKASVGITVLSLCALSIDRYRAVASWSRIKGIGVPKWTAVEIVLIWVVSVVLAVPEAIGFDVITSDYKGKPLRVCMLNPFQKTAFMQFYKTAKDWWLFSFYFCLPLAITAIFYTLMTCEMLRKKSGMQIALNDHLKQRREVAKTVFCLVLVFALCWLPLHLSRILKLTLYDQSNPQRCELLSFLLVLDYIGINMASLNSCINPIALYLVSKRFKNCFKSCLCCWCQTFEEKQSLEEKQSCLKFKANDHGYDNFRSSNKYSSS

Row | pIC50 (Endothelin-1 receptor) | pIC50 [1] | SMILES
1 | 9 | 9.05 | CC[C@@H](C)[C@H](NC(=O)[C@H](CC(=O)O)NC(=O)[C@H](CC(C)C)NC(=O)[C@H](Cc1cnc[nH]1)NC(=O)[C@H](CS)NC(=O)[C@H](Cc1ccccc1)NC(=O)[C@H](Cc1ccc(O)cc1)NC(=O)[C@@H](NC(=O)[C@H](CS)NC(=O)[C@H](CCC(=O)O)NC(=O)[C@H](CCCCN)NC(=O)[C@H](CC(=O)O)NC(=O)[C@H](CCSC)NC(=O)[C@H](CC(C)C)NC(=O)[C@H](CO)NC(=O)[C@H](CO)NC(=O)[C@H](CS)NC(=O)[C@H](CO)NC(=O)[C@@H](N)CS)C(C)C)C(=O)N[C@@H](C(=O)N[C@@H](Cc1c[nH]c2ccccc12)C(=O)O)C(C)C [Endothelin-1 analogue]
2 | 6.07 | 8.6 | CC[C@@H](C)[C@H](NC(=O)[C@H](CC(=O)O)NC(=O)[C@H](CC(C)C)NC(=O)[C@H](Cc1cnc[nH]1)NC(=O)[C@H](CS)NC(=O)[C@H](Cc1ccccc1)NC(=O)[C@H](Cc1ccc(O)cc1)NC(=O)[C@@H](NC(=O)[C@H](CS)NC(=O)[C@H](CCC(=O)O)NC(=O)[C@H](CCCCN)NC(=O)[C@H](CC(=O)O)NC(=O)[C@H](CCSC)NC(=O)[C@H](CC(C)C)NC(=O)[C@H](CO)NC(=O)[C@H](CO)NC(=O)[C@H](CS)NC(=O)[C@H](CO)NC(=O)[C@@H](N)CS)C(C)C)C(=O)N[C@H](Cc1ccccc1)C(=O)N[C@@H](Cc1c[nH]c2ccccc12)C(=O)O [Endothelin-1 analogue]
3 | 9.88 | 10 | CC[C@H](C)[C@H](NC(=O)[C@H](CC(=O)O)NC(=O)[C@H](CC(C)C)NC(=O)[C@H](Cc1cnc[nH]1)NC(=O)[C@H](CS)NC(=O)[C@H](Cc1ccccc1)NC(=O)[C@H](Cc1ccc(O)cc1)NC(=O)[C@@H](NC(=O)[C@H](CS)NC(=O)[C@H](CCC(=O)O)NC(=O)[C@H](CCCCN)NC(=O)[C@H](CC(=O)O)NC(=O)[C@H](CCSC)NC(=O)[C@H](CC(C)C)NC(=O)[C@H](CO)NC(=O)[C@H](CO)NC(=O)[C@H](CS)NC(=O)[C@H](CO)NC(=O)[C@@H](N)CS)C(C)C)C(=O)N[C@H](C(=O)N[C@@H](Cc1c[nH]c2ccccc12)C(=O)O)C1CCCCC1 [Endothelin-1 analogue]
4 | 7.04 | 9.59 | CC[C@H](C)[C@H](NC(=O)[C@H](CC(=O)O)NC(=O)[C@H](CC(C)C)NC(=O)[C@H](Cc1cnc[nH]1)NC(=O)[C@H](CS)NC(=O)[C@H](Cc1ccccc1)NC(=O)[C@H](Cc1ccc(O)cc1)NC(=O)[C@@H](NC(=O)[C@H](CS)NC(=O)[C@H](CCC(=O)O)NC(=O)[C@H](CCCCN)NC(=O)[C@H](CC(=O)O)NC(=O)[C@H](CCSC)NC(=O)[C@H](CC(C)C)NC(=O)[C@H](CO)NC(=O)[C@H](CO)NC(=O)[C@H](CS)NC(=O)[C@H](CO)NC(=O)[C@@H](N)CS)C(C)C)C(=O)N[C@@H](C(=O)N[C@@H](Cc1c[nH]c2ccccc12)C(=O)O)C1CCCCC1 [Endothelin-1 analogue]
